Measured values as given in publication PMC8305974, “Novel Hybrid Compounds Containing Benzofuroxan and Aminothiazole Scaffolds: Synthesis and Evaluation of Their Anticancer Activity” (International Journal of Molecular Sciences, 2021).
Read-outs that look alike come from different tables or passages of the source.

Experiments:
in vitro = conditions: human
M-HeLa [1] = experiment: Cytotoxicity assay (Cytell Cell Imaging, Cell Viability Bio App); conditions: read-out: Cytotoxic effects (IC50) M-HeLa; cancer cell line M-HeLa; tested at 1–100 μM; mean ± SD, three repeats
HuTu 80 [2] = experiment: as above; conditions: read-out: Cytotoxic effects (IC50) HuTu 80; cancer cell line HuTu 80; tested at 1–100 μM; mean ± SD, three repeats
PANC-1 [3] = experiment: as above; conditions: read-out: Cytotoxic effects (IC50) PANC-1; cancer cell line PANC-1; tested at 1–100 μM; mean ± SD, three repeats
M-HeLa [4] = conditions: for IC50: human
HuTu 80 [5] = conditions: human
PANC-1 [6] = conditions: human
M-HeLa cells = experiment: Cell apoptosis analysis by flow cytometry (annexin V-FITC / propidium iodide); format: cell-based, human; conditions: 24 h
Method: Cell Culture. M-HeLa cells at 1 × 10^6 cells/well in a final volume of 2 mL were seeded into 6-well plates. After 24 h of incubation, various concentrations of Compounds 2f and 3f were added to wells.
Cell Apoptosis Analysis. The cells were harvested at 2000 rpm for 5 min and, then, washed twice with ice-cold PBS, followed by resuspension in binding buffer. Next, the samples were incubated with 5 μL of annexin V-FITC and 5 μL of propidium iodide for 15 min at room temperature in the dark. Finally, the cells were analyzed by flow cytometry (Guava easy Cyte, MERCK, Kenilworth Union County, NJ, USA). The experiments were repeated three times.

M-HeLa cell lines = experiment: Cell cycle analysis by flow cytometry (propidium iodide); format: cell-based, human; conditions: 24 h, control 68.1
Method: Cell cycle analysis by quantification of DNA content is a reliable method to investigate which phase cell cycle has been arrested, wherein propidium iodide dye is used which binds in proportion to the amount of DNA present in the cell. […] The results reveal that 3f caused an increase in % of G1 arrest. Compound 3f was on 81.4% and 83.8% at 50 and 100 µM, respectively, which is more than control cells (68.1%) (Figure 9).
The DNA content and cell-cycle distribution after genistein treatment were estimated by flow cytometry. Cell seeding, drug treatment and ethanol fixation were similar to cell proliferation assay. After washing with PBS, genistein and daidzein-treated and -fixed cells were suspended in 150 μL of PBS, then 0.5 mL phosphate-citrate buffer (0.05 M, pH 4.0) was added and the suspension was incubated at room temperature for 5 min to facilitate the extraction of low-molecular-weight DNA. Following centrifugation, the cells were resuspended in 150 μL DNA staining solution (20 μg/mL propidium iodide, 200 μg/mL […], and 0.1% Triton X-100) and incubated in the CO2 incubator (37 °C for 30 min). Cell cycle distribution was determined by fluorescence-activated cell sorting analysis of propidium iodide-stained ethanol-fixed cells using a Guava EasyCyte (Guava easy Cyte, MERCK, Kenilworth Union County, NJ, USA).

[7] = Chang Liver cells (normal liver cell line)

Row | Compound | IC50 (in vitro; [7]) | IC50 (M-HeLa [1]) | IC50 (HuTu 80 [2]) | IC50 (PANC-1 [3]) | IC50 (M-HeLa [4]) | IC50 (HuTu 80 [5]) | IC50 (PANC-1 [6]) | IC50 (in vitro) | other results
1 | O=c1[nH]cc(F)c(=O)[nH]1 [5-Fluorouracil, reference compound] | 72.4 ± 6.5 µM | 62 ± 4.9 µM | 65.2 ± 5.5 µM | 68.3 ± 5.7 µM | – | – | – | – | –
2 | Nc1nccs1 [Compound 2a] | – | – | – | – | 91 ± 8.3 µM | > 100 µM | > 100 µM | > 100 µM | –
3 | Cc1cnc(N)s1 [Compound 2b] | > 100 µM | 92 ± 7.9 µM | > 100 µM | > 100 µM | – | – | – | – | –
4 | CCOC(=O)c1csc(N)n1 [Compound 2c] | 95.4 ± 8.7 µM | 63.3 ± 5.7 µM | > 100 µM | > 100 µM | – | – | – | – | –
5 | Cc1cnc(Nc2ccccc2)s1 [Compound 2e] | > 100 µM | 92 ± 8.2 µM | > 100 µM | > 100 µM | – | – | – | – | –
6 | COc1ccc(Nc2nccs2)cc1 [Compound 2f] | > 100 µM | 93.8 ± 8.4 µM | > 100 µM | > 100 µM | – | – | – | – | –
7 | O=[N+]([O-])c1cc([N+](=O)[O-])c2no[n+]([O-])c2c1Nc1nccs1 [Compound 3a, 4,6-dinitro-7-(thiazol-2-ylamino)benzo[c][1,2,5]oxadiazole 1-oxide] | – | – | – | – | 61 ± 5.4 µM | > 100 µM | > 100 µM | > 100 µM | Cytotoxicity in words, M-HeLa (M-HeLa [4]): moderate cytotoxicity; Toxicity in words, normal cells (Chang Liver) (Chang Liver): not toxic
8 | Cc1cnc(Nc2c([N+](=O)[O-])cc([N+](=O)[O-])c3no[n+]([O-])c23)s1 [Compound 3b, 7-(5-methylthiazol-2-ylamino)-4,6-dinitrobenzo[c][1,2,5]oxadiazole 1-oxide] | – | – | – | – | 70 ± 6.2 µM | > 100 µM | > 100 µM | > 100 µM | –
9 | CCOC(=O)c1cnc(Nc2c([N+](=O)[O-])cc([N+](=O)[O-])c3no[n+]([O-])c23)s1 [Compound 3c, 7-(5-(ethoxycarbonyl)thiazol-2-ylamino)-4,6-dinitrobenzo[c][1,2,5]oxadiazole 1-oxide] | – | – | – | – | 95.8 ± 8.4 µM | > 100 µM | > 100 µM | 100 ± 9.4 µM | –
10 | O=[N+]([O-])c1cc([N+](=O)[O-])c2no[n+]([O-])c2c1N(c1ccccc1)c1nccs1 [Compound 3d, 4,6-dinitro-7-(phenyl(thiazol-2-yl)amino)benzo[c][1,2,5]oxadiazole 1-oxide] | – | – | – | – | 61 ± 5.6 µM | > 100 µM | > 100 µM | 86.1 ± 7.8 µM | Cytotoxicity in words, M-HeLa (M-HeLa [4]): moderate cytotoxicity; Toxicity in words, normal cells (Chang Liver) (Chang Liver): not toxic
11 | Cc1cnc(N(c2ccccc2)c2c([N+](=O)[O-])cc([N+](=O)[O-])c3no[n+]([O-])c23)s1 [Compound 3e, 7-((5-methylthiazol-2-yl)(phenyl)amino)-4,6-dinitrobenzo[c][1,2,5]oxadiazole 1-oxide] | – | – | – | – | 79 ± 6.3 µM | > 100 µM | > 100 µM | 85.8 ± 7.4 µM | –
12 | COc1ccc(N(c2nccs2)c2c([N+](=O)[O-])cc([N+](=O)[O-])c3no[n+]([O-])c23)cc1 [Compound 3f, 7-((4-methoxyphenyl)(thiazol-2-yl)amino)-4,6-dinitrobenzo[c][1,2,5]oxadiazole 1-oxide] | – | – | – | – | 56.6 ± 4.7 µM | > 100 µM | > 100 µM | > 100 µM | Early apoptotic cells (Ea) (M-HeLa cells; 50 µM): 10.73%; Early apoptotic cells (Ea) (M-HeLa cells; 100 µM): 17.29%; Cells in G1 phase (M-HeLa cell lines; 50 µM): 81.4%; Cells in G1 phase (M-HeLa cell lines; 100 µM): 83.8%; Cytotoxicity in words, M-HeLa (M-HeLa [4]): moderate cytotoxicity; Toxicity in words, normal cells (Chang Liver) (Chang Liver): not toxic
